Columns and labels:
[1] = cited from earlier work
[2] = glycerine; previous data confirmed by the test; cited from earlier work
[3] = Solubility determination of selected folate salts in solvents; assay type: physicochemical; conditions: mass-% (m/m), 20° C.; for Solubility in DMSO: solvent DMSO; for Solubility in EtOH: solvent EtOH; for Solubility in MeOH: solvent MeOH; for Solubility in Glycerine: solvent glycerine; for Solubility in i-PrOH: solvent i-PrOH; for Solubility in n-PrOH: solvent n-PrOH
Procedure: Solubility determination of selected folate salts was in general performed as follows:
A quantity of the salt corresponding to the expected solubility (between 1-100 mg) was provided and mixed with increments of the respective solvent until a solution was formed.

Row | Compound | Solubility in dilute acid or dilute alkali ([1]; dilute acid or dilute alkali) | Solubility in organic solvents ([1]; organic solvents) | Solubility in water ([1]; water at 25° C.) | Solubility of calcium salt, previous data [2] | Solubility in DMSO [3] [%] | Solubility in EtOH [3] [%] | Solubility in MeOH [3] | Solubility in Glycerine [3] [%] | Solubility in i-PrOH [3] [%] | Solubility in n-PrOH [3] [%]
1 | 5-methyl-tetrahydrofolic acid glucosamine salt [5-MTHF-glucosamine] | soluble | insoluble | very soluble |  |  |  |  |  |  | 
2 | CN1c2c([nH]c(N)nc2=O)NC[C@@H]1CNc1ccc(C(=O)N[C@@H](CCC(=O)[O-])C(=O)[O-])cc1.[Ca+2] [calcium salt of 5-methyl-(6S)-tetrahydrofolic acid] |  |  |  | approximately 1% |  |  |  |  |  | 
3 | 5-Methyl-(6S)-tetrahydrofolic acid di acetylcholine salt [MTHF di acetylcholine] |  |  |  |  | 47.62 | 50.00 | >>50% | 24.10 | 50.00 | 50.00
4 | 5-Formyl-(6S)-tetrahydrofolic acid di acetylcholine salt [FTHF di acetylcholine] |  |  |  |  | 0.25 | 55.80 | 55.80% | 24.10 | 0.50 | 55.90

From patent US12622913B2, “Folate salts for medical use” (APROFOL AG, priority 2018, dated 2026)
